Source: PubChem BioAssay AID743417 (Broad Institute, 2014)
Records with an inconclusive call do not appear. Active and inactive are the calls of the source.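 Rule for the calls: active = compounds lowering the luciferase signal with a fitted half-maximal dose at most twice their top valid dose (cut at about 30 µM in these data); inconclusive = flat fits with moderate signal loss, or poor fits; inactive = the rest.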

tested on: Clone20 osteoblast Shn3 3'UTR firefly luciferase, 24 h; assay: Schnurri-3 3'UTR-luciferase signal suppressors – cell-based, Clone20 osteoblasts, luminescence, dry powder, set 2, dose response (AID 743417)

Row | SMILES | AC50
1 | CN(CCOc1ccc(Cl)cc1)C(=O)c1cccc(S(=O)(=O)N2CCN(c3ccc(F)cc3)CC2)c1 | 1.77 µM
2 | COc1ccc(CN2CCC(N(CCc3ccccc3)Cc3ccccc3)CC2)c(OC)c1 | 8.1 µM
3 | NC(=O)CC(NC(=O)c1ccc(Br)cc1)c1ccc(N2CCC(Br)CC2)c([N+](=O)[O-])c1 (centres undefined) | 4.19 µM
4 | O=C(NC1CCCCCCC1)c1cc(COc2ccc3ncccc3c2)on1 | 1.06 µM
5 | COc1ccccc1-c1cc(C(F)(F)F)nc(S(=O)(=O)CCCC(=O)Nc2cc(C)on2)n1 | 6.57 µM
6 | CCOc1ccc(/C=C/[N+](=O)[O-])c2ccccc12 | 4.27 µM
7 | CCOc1cc(/C=C2\CN(CC)C/C(=C\c3ccc(O)c(OCC)c3)C2=O)ccc1O | 2.12 µM
8 | Cc1cccnc1CN1CCN(C(=O)c2cc(COc3ccc4ncccc4c3)on2)CC1 | 2.1 µM
9 | CC(=O)Nc1ccc(Sc2ccc([N+](=O)[O-])o2)cc1 | 2.15 µM
10 | COc1ccccc1C(CCNCc1ccc(N(C)C)cc1)c1ccc(OC(C)C)cc1 (centres undefined) | 6.48 µM
11 | COc1ccc(C[C@H]2COC(=O)[C@@H]2Cc2ccc(OC3OC(CO)C(O)C(O)C3O)c(OC)c2)cc1OC (some centres undefined) | 4.43 µM
12 | CC(=O)OCC(=O)[C@@]1(O)CC[C@H]2[C@@H]3CCC4=CC(=O)CC[C@]4(C)[C@H]3C(=O)C[C@@]21C | 28.3 µM
13 | O=C1C=C(c2ccnc3cc(Cl)ccc23)C[C@@H](c2ccc3c(c2)OCO3)C1 | 1.36 µM
14 | COc1ccc(CCNc2ncnc3sccc23)cc1OC | < 0.26 µM
15 | O=[N+]([O-])c1cccnc1S(=O)(=O)c1ccccc1 | 4.79 µM
16 | Cc1ccc(S(=O)(=O)N2CCCCC2)cc1NC(=O)Cn1ncc(Cl)c(Cl)c1=O | 4.32 µM
17 | Cn1c(SCC(=O)N2CCCc3ccccc32)nc2ccccc2c1=O | 3.46 µM
18 | CCc1ccc(NC(=O)c2nc(S(=O)(=O)Cc3ccccc3)ncc2Cl)cc1 | 0.551 µM
19 | CCC1CSC(Nc2ccc(C(=O)/C=C/c3ccc(OC)c(OC)c3)cc2)=N1 (centres undefined) | 4.47 µM
20 | Cc1cccc2c(C(=O)N3CCN(c4ccccn4)CC3)cc(-c3cccc(Br)c3)nc12 | 6.48 µM
21 | COCCNc1nc(NCc2ccc(C(C)C)cc2)c2sccc2n1 | 3.95 µM
22 | CS(=O)(=O)c1ccc(C(=O)OCC(=O)Nc2cccnc2Cl)cc1[N+](=O)[O-] | 9.09 µM
23 | Cc1nc(N2CCN(C(=O)c3ccco3)CC2)c2c3c(sc2n1)CC(C)CC3 (centres undefined) | 2.33 µM
24 | CC(C)[C@H](NC(=O)OC(C)(C)C)c1nnc(S(=O)(=O)Cc2c(F)cccc2Cl)o1 | 1.08 µM
25 | O=C1C(=C(c2ccccc2)N2CCOCC2)Cc2ccccc21 | 0.999 µM

Row | SMILES | AC50
26 | CCCC(=O)NC(c1ccccc1)c1ccc2cccnc2c1O (centres undefined) | 1.99 µM
27 | Cc1ccc(CNC(=O)c2cc(-c3ccccc3C)nn2CC2CC(c3cccnc3)=NO2)cc1 (centres undefined) | > 70 µM (inactive)
28 | Cc1ccc(NC(=O)c2cc(S(=O)(=O)NCCC3=CCCCC3)ccc2F)cc1F | 4.13 µM
29 | COc1ccc(-n2ncc(Cl)c(Cl)c2=O)cc1 | 3.36 µM
30 | CN1C(=O)c2cccc(NCCCCCCN3C(=O)c4ccccc4C3=O)c2C1=O | 5.57 µM
31 | CC(C)c1nc(SCC(=O)Nc2cccc(C(F)(F)F)c2)c2c(=O)n(C)c(=O)n(C)c2n1 | 2.7 µM
32 | CC1CCCC(NC(=O)c2cccc(S(=O)(=O)N3CCN(c4ccccc4)CC3)c2)C1C (centres undefined) | 3.14 µM
33 | Cc1ccc2nc(NNC(=O)c3ccc(S(=O)(=O)N4CCc5ccccc5C4)cc3)sc2c1 | 1.62 µM
34 | COc1ccc(CNCCC(c2ccc(OC(C)C)cc2)c2ccccc2OC)cc1OC (centres undefined) | 4.35 µM
35 | CCCC(=O)N1CCN(c2ccc(NC(=O)c3cc4ccccc4o3)cc2Cl)CC1 | 4.1 µM
36 | O=C(Sc1cccc2cccnc12)c1ccccc1Br | 0.383 µM
37 | Cc1cc(N2CCCC2=O)cc(C)c1S(=O)(=O)NCCOc1ccc(C(C)(C)C)cc1 | 1.15 µM
38 | CC(CC(=O)N1CCN(c2cccc(Cl)c2)CC1)S(=O)(=O)c1ccc2c(c1)NC(=O)CO2 (centres undefined) | 3.99 µM
39 | CCC1CCCCN1S(=O)(=O)c1ccc(NC(=O)c2ccncc2)cc1 (centres undefined) | 3.43 µM
40 | O=C(Nc1nc(-c2ccccn2)cs1)c1cccc(S(=O)(=O)N2CCOCC2)c1 | 1.52 µM
41 | CCC(=O)NC(c1ccco1)c1cc(Cl)c2cccnc2c1O (centres undefined) | 1.31 µM
42 | Nc1nonc1C(=O)NCCNCc1cc(Br)ccc1OCc1ccc(F)cc1 | 3.74 µM
43 | COC(=O)c1ccc(CCc2cc(O)ccc2O)cc1 | 3.14 µM
44 | CCOc1cc(/C=C2\C(=O)ON=C2C)ccc1OCc1ccccc1 | 10.4 µM
45 | CCCCN1CC(COCc2ccccc2)Oc2cccc(Oc3ccc(C(C)C)cc3)c2S1(=O)=O (centres undefined) | 5.03 µM
46 | COCC1CCCCN1C(=O)c1cc(COc2ccc3ncccc3c2)on1 (centres undefined) | 0.33 µM
47 | CCOC(=O)C1CCCN(S(=O)(=O)c2ccc(S(=O)(=O)N3CCCC3)cc2)C1 (centres undefined) | 0.821 µM
48 | C=C1C(=O)c2sccc2C(c2ccc(OC)c(OC)c2)C1COC(C)=O (centres undefined) | 0.662 µM
49 | CCCCc1ccc(NC(=O)C(=O)NCCN2CCN(Cc3ccc([N+](=O)[O-])cc3)CC2)cc1 | 1.13 µM
50 | CC(Sc1nc2ccccc2c(=O)n1C)C(=O)N(C)C1CCCCC1 (centres undefined) | 2.27 µM

Row | SMILES | AC50
51 | CC(=O)N1CCc2c(sc(NC(=O)c3ccc([N+](=O)[O-])o3)c2C(N)=O)C1 | 1.85 µM
52 | Cc1ccc(-c2nc3ncccc3o2)cc1NC(=O)c1sc2ccccc2c1Cl | 5.87 µM
53 | CCC(=O)NC(c1ccc(Cl)cc1Cl)c1ccc2cccnc2c1O (centres undefined) | 1.19 µM
54 | CC(=O)c1cccc(NS(=O)(=O)c2ccc(N/C=C\C(=O)c3ccc(C)cc3)cc2)c1 | 1.51 µM
55 | O=C(NCc1ccccc1C(F)(F)F)c1cccc2c1C(=O)c1ccc(N3CCC(N4CCCCC4)CC3)cc1S2(=O)=O | 21.2 µM
56 | C=C1CC2(CC(c3ccccc3)OC(c3ccccc3)C2)OC1=O (centres undefined) | 2.49 µM
57 | O=C(Nc1ccc(S(=O)(=O)N2CCCC2)cc1)c1ccc(CN2CCc3ccccc3C2)cc1 | 0.575 µM
58 | CS(=O)(=O)c1ccc(Sc2nc3ccccc3s2)c([N+](=O)[O-])c1 | 9.73 µM
59 | O=C1NCCOC(=O)[C@@H](Cc2ccc(F)cc2)CC/C=C/C[C@@H]1CC(=O)N(CCO)Cc1ccccc1 | > 70 µM (inactive)
60 | O=C(OCc1ccccc1)N(CCCCN(CCCNCc1ccccc1)C(=O)OCc1ccccc1)CCCNCc1ccccc1 | 5.36 µM
61 | CC(=O)O[C@H]1CC[C@@]2(C)C(=CC[C@H]3[C@@H]4CC[C@H](C(C)=O)[C@@]4(C)CC[C@@H]32)C1 | 28.5 µM
62 | S=C(NNc1ccnc2cc(Cl)ccc12)Nc1ccc(Cl)cc1Cl | 4.9 µM
63 | O=C(CSc1nc(-c2ccco2)cc(C(F)(F)F)n1)Nc1ccc(C(=O)N2CCCCC2)cc1 | 2.87 µM
64 | Cc1ccc2cc(CN(CC3CCCO3)C(=O)NC3CCCCC3)c(=O)[nH]c2c1C (centres undefined) | 4.49 µM
65 | CC(C)(C)C(=O)Nc1cc2nn(-c3ccccc3)nc2cc1Cl | 5.16 µM
66 | CC(Nc1ncnc2ccccc12)c1ccccc1 (centres undefined) | 0.355 µM
67 | COc1ccc(CCN2C(=O)CSC2=Nc2ccc(C(C)C)cc2)cc1OC | 4.49 µM
68 | CCCCCCN1C[C@@H](n2cc(-c3ccc(F)cc3)nn2)[C@H](O)C[C@@H]1c1ccc(Cl)cc1 | 12.5 µM
69 | CC1=CC2/C=C(\C)CCC(O)C(O)/C=C/C(=O)C23C(=O)NC(CC(C)C)C3C1C (centres undefined) | 5.29 µM
70 | Cc1nn(-c2ccccc2)c(C)c1C(=O)OC(C)C(=O)NC1CCCCC1 (centres undefined) | 8.19 µM
71 | O=C1C=CC(=O)N1CCNc1ncc(C(F)(F)F)cc1Cl | 0.947 µM
72 | CCN(c1ccccc1)S(=O)(=O)c1ccc(NC(=O)c2nc(S(C)(=O)=O)ncc2Cl)cc1 | 0.562 µM
73 | CNC(=O)c1nnsc1S(=O)c1ccc(Cl)cc1 (centres undefined) | 2.02 µM
74 | CC1=NN(c2nc3ccccc3[nH]2)C(=O)C1Cc1ccccc1 (centres undefined) | 4.11 µM
